Holding throughout (assay): inhibition of tumour cell growth, NCI panel, 48 h
Assay [1] has as its system IGROV1 ovarian.
In assay [2] the test system is CCRF-CEM leukemia.
In assay [3] the test system is U251 CNS.
The subject of assay [4] is SK-MEL-5 melanoma.
In assay [5] the test system is A549 NSCLC.
The test system of assay [6] is NCI/ADR-RES ovarian.
Assay [7] concerns RPMI-8226 leukemia.
The subject of assay [8] is SW-620 colon.
In assay [9] the test system is UACC-62 melanoma.
Assay [10] relates to NCI-H23 lung.

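Interpolation was linear, between the two tested concentrations surrounding the appropriate level; five concentrations were tested over 48 hours in 96-well plates. GI50: concentration for 50% inhibition of growth. TGI marks complete inhibition of growth.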 Where only a bound is given, the exact number is not on record here.

For eight compounds, GI50 and TGI results are on record in PubChem BioAssay (NCI).

`COc1cc2ccnc3c2c(c1OC)-c1ccc(=O)ccc1-3`: the GI50 in assay [1] was 47 µM; in assay [2], 13.7 µM; in assay [3] it was 27.6 µM; in assay [4], 17.1 µM; in assay [5], 18.2 µM; in assay [6], 17.4 µM. The GI50 was 18.4 µM in assay [7], 13.9 µM in assay [8] and 14.6 µM in assay [9]. Moreover, the TGI in assay [1] is > 100 µM; in assay [2], 41.7 µM; in [3], 96.9 µM; in assay [4], 47.9 µM; in assay [5], 55.4 µM; in assay [6] it was 57.6 µM. Further, the TGI in [7] was 51.9 µM; in assay [8], > 100 µM; in assay [9], 34 µM.

Turning to `CCN(C(=O)CCl)C(C)(C)C(SSSC(c1ccc(Cl)cc1)C(C)(C)N(CC)C(=O)CCl)c1ccc(Cl)cc1` (stereo unspecified), the GI50 is 10.9 µM in [1]; 2.45 µM in assay [2]; 4.72 µM in assay [3]; 6.92 µM in [4]; 15 µM in [5]; 8.31 µM in assay [6]. Further, the GI50 in [7] was 3.99 µM; in assay [8], 3.85 µM. In addition, the TGI in [1] was 31.5 µM; in [2], 5.93 µM; in assay [3], 17.7 µM; in assay [4], 20.2 µM; in assay [5], 31.1 µM; in [6], 24 µM. Also, the results for the TGI in assay [7] and in assay [8] were 18.2 µM and 14.6 µM, respectively.

As to `O=C(O)C[O][Sb][O]CC(=O)O`, the GI50 in [1], in [2], in assay [3], in assay [4], in assay [5] and in assay [6] was > 100 µM in each case. Further, the GI50 in [10], in [8] and in assay [9] was > 100 µM in each case. Moreover, the TGI in assay [1], in assay [2], in assay [3], in assay [4], in assay [5] and in assay [6] was > 100 µM in each case. Besides, the TGI in assay [10], in assay [8] and in assay [9] was > 100 µM throughout.

Take `ClC1=NC(Cl)C(Cl)=N/C1=N\c1ncn[nH]1` (stereo unspecified): the GI50 in assay [1] was 2.23 µM; in assay [3], 4.88 µM; in assay [4] it was 5.57 µM; in assay [5] it was 17.1 µM; in assay [6], 3.15 µM; in assay [7], 1.97 µM. Further, in assay [8], the GI50 is 2.06 µM. For the same compound, the TGI is 4.63 µM in [1]; 17 µM in assay [3]; 18.7 µM in assay [4]; 34.4 µM in assay [5]; 8.79 µM in assay [6]; 4.43 µM in assay [7]. The compound also registered a TGI in assay [8] of 4.3 µM.

For the compound `COc1ccc2c(c1)sc1nc(-c3ccccc3)c(-c3ccc(O)c(OC)c3)n12`, the GI50 in [1] was > 100 µM; in assay [3], 5.28 µM; in [4] it was 3.64 µM; in assay [5] it was 9.91 µM; in [6], 4.55 µM; in assay [10], 95.5 µM. For the same compound, the GI50 in assay [8] was 5.15 µM; in assay [9] it was 8.29 µM. Moreover, the TGI in assay [1], in assay [3], in assay [4], in assay [5], in assay [6] and in assay [10] was > 100 µM each time. The TGI in assay [8] and in assay [9] was > 100 µM each time.

For `Nc1c(C(=O)c2cccc(C#CCN3CCOCC3)c2)cnn1-c1ccc(F)cc1`, the GI50 in [1] was > 17.2 µM; in assay [3], > 21 µM; in [4], 8.88 µM; in [5] it was > 16.6 µM; in [6], 8.23 µM; in assay [7] it was > 20.8 µM. In addition, the GI50 in assay [10] was > 25 µM; in [8] it was 9.28 µM; in [9] it was 19.6 µM. In addition, the TGI in assay [1], in assay [3], in [4], in assay [5], in [6] and in assay [7] was > 25 µM in each case. In addition, the TGI in [10], in assay [8] and in assay [9] was > 25 µM in each case.

As to `CO/N=C(/COc1c(-c2ccccc2)oc2ccccc2c1=O)c1ccc(OC)cc1`, the GI50 in assay [1] was > 100 µM; in assay [2] it was 60 µM; in assay [3], > 100 µM; in [5], > 100 µM; in assay [6], 76.2 µM; in [7], 41.9 µM. The GI50 in assay [10] was > 100 µM; in assay [8], > 100 µM; in assay [9], 53.5 µM. The TGI in assay [1], in [2], in assay [3], in assay [5], in [6] and in [7] was > 100 µM each time. For the same compound, the TGI in [10], in [8] and in assay [9] was > 100 µM each time.

Turning to `Cc1ncc(C(=O)Nc2ccc(CN3CCN(C)CC3)c(C(F)(F)F)c2)cc1C#Cc1cnc(N)c2ncccc12`, the GI50 in assay [2] is 0.558 µM; in assay [3] it was 1.07 µM; in assay [4], 1.02 µM; in assay [5], 0.391 µM; in assay [6], 1.34 µM; in assay [7] it was 0.538 µM. The values for the GI50 in [10], in assay [8] and in [9] were 0.841 µM, 0.208 µM and 0.0276 µM, respectively. Moreover, the TGI was > 20.6 µM in assay [2]; 2.65 µM in assay [3]; 4.44 µM in [4]; 2.69 µM in assay [5]; 3.76 µM in [6]; 3.98 µM in assay [7]. Moreover, the results for the TGI in [10], in assay [8] and in assay [9] were 3.3 µM, 2.9 µM and 1.31 µM, respectively.
